# Values quoted from earlier work as cited in patent US10172922B2, “Rapid-acting insulin compositions” (Eli Lilly and Company, priority 2014, dated 2019).
# Details: on a molar basis
substance,measurement,value
28^B-L-Lysine-29^B-L-proline human insulin [Insulin lispro],Potency relative to human insulin,equipotent to human insulin on a molar basis
